Experimental data from publication PMC3914891, “Pentacyclic Nitrofurans with In Vivo Efficacy and Activity against Nonreplicating Mycobacterium tuberculosis” (PLoS ONE, 2014).
Values after ≈ are worked out from the molar mass of the structure shown.

How the values were obtained:
[1] = tested on: 9a resistant clones of M. tuberculosis H37Rv; test: microbe, parasite or virus in culture; format: cell-based, Mycobacterium tuberculosis
H37Rv-14A1 = format: cell-based, M. tuberculosis
H37Rv-T3 = format: cell-based, M. tuberculosis
M. tuberculosis H37Rv = format: cell-based, Mycobacterium tuberculosis
H37Rv-5A1 = format: cell-based, M. tuberculosis

Row | SMILES | Cross resistance profile, Clone # 1 [1] | Cross resistance profile, Clone # 2 [1] | Cross resistance profile, Clone # 3 [1] | Cross resistance profile, Clone # 4 [1] | Cross resistance profile, Clone # 5 [1] | Cross resistance profile, Clone # 6 [1] | Cross resistance profile, Clone # 7 [1] | Cross resistance profile, Clone # 8 [1] | Cross resistance profile, Clone # 9 [1] | Cross resistance profile, Parent [1] | sensitivity of 9a resistant clones to the drug [1] | also measured
1 | O=[N+]([O-])c1ccc(C2=NOC(c3ccc(N4CCOCC4)cc3)C2)o1 (stereo not drawn) [Compound 2] | R | R | R | R | R | R | R | R | R | S | – | –
2 | O=[N+]([O-])c1ccc(C2=NOC(c3ccc(N4CCC(Oc5ccc(OC(F)(F)F)cc5)CC4)cc3)C2)o1 (stereo not drawn) [Compound 9a, 3-(5-Nitrofuran-2-yl)-5-(4-(4-(4-(trifluoromethoxy)phenoxy)piperidin-1-yl)phenyl)-4,5-dihydroisoxazole] | R | R | R | R | R | R | R | R | R | S | – | MIC (H37Rv-14A1): 0.1 µg/mL (≈ 0.193 µM); MIC (H37Rv-T3): 0.1 µg/mL (≈ 0.193 µM); frequency of spontaneous resistance (M. tuberculosis H37Rv): 3×10^−7; MIC (H37Rv-5A1): 0.05 µg/mL (≈ 0.0966 µM); MIC ([1]; Mycobacterium tuberculosis, H37RV): > 3.13 µg/mL
3 | CC[C@@H](CO)NCCN[C@@H](CC)CO [Ethambutol] | – | – | – | – | – | – | – | – | – | – | retained sensitivity | –
4 | NNC(=O)c1ccncc1 [Isoniazid] | – | – | – | – | – | – | – | – | – | – | retained sensitivity | –
5 | CC(=O)NC[C@H]1CN(c2ccc(N3CCOCC3)c(F)c2)C(=O)O1 [Linezolid] | – | – | – | – | – | – | – | – | – | – | retained sensitivity | –
6 | C[C@]1(COc2ccc(N3CCC(Oc4ccc(OC(F)(F)F)cc4)CC3)cc2)Cn2cc([N+](=O)[O-])nc2O1 [OPC-67683] | S | S | S | S | R | S | S | S | S | S | – | –
7 | O=[N+]([O-])c1cn2c(n1)OC[C@@H](OCc1ccc(OC(F)(F)F)cc1)C2 [PA-824] | S | S | S | S | R | S | S | S | S | S | – | MIC (H37Rv-14A1): 50 µg/mL (≈ 139 µM); MIC (H37Rv-T3): 100 µg/mL (≈ 278 µM); MIC (H37Rv-5A1): 50 µg/mL (≈ 139 µM)
8 | CO[C@H]1/C=C/O[C@@]2(C)Oc3c(C)c(O)c4c(O)c(c(/C=N/N5CCN(C)CC5)c(O)c4c3C2=O)NC(=O)/C(C)=C\C=C\[C@H](C)[C@H](O)[C@@H](C)[C@@H](O)[C@@H](C)[C@H](OC(C)=O)[C@@H]1C [Rifampin] | – | – | – | – | – | – | – | – | – | – | retained sensitivity | –
9 | [H]/N=C(/N)N[C@H]1[C@H](O)[C@@H](O)[C@H](O[C@@H]2O[C@@H](C)[C@](O)(C=O)[C@H]2O[C@@H]2O[C@@H](CO)[C@H](O)[C@@H](O)[C@@H]2NC)[C@@H](N/C(N)=N\[H])[C@@H]1O [Streptomycin] | – | – | – | – | – | – | – | – | – | – | retained sensitivity | –
10 | CC1COc2c(N3CCN(C)CC3)c(F)cc3c(=O)c(C(=O)O)cn1c23 (stereo not drawn) [ofloxacin] | – | – | – | – | – | – | – | – | – | – | retained sensitivity | –
